The subject of assay [1] is acetylated histone H-4 in T24 human bladder cancer cells. Nature of the assay: Histone H4 acetylation in whole cells by immunoblots. Type of assay: cell-based. The following applies: T-24, Table 5F, 16 h, read-out: H4 Ac (T24) EC50. In short, it runs like this:
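Acetylated histone H4 was quantified by densitometry of ECL-developed immunoblots, probed with a polyclonal antibody, of […] total histone from T24 cultures exposed 16 h to HDAC inhibitors.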
For orientation: A western blot detects proteins with antibodies after separation by electrophoresis.

Another assay has as its system HCT116 cells. Put plainly: MTT assay. Type of assay: cell-based. The following applies: Homo sapiens, HCT-116, 72 h, Table 5F; HCT116 cells, 72 hours. In short, it runs like this: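 Read-out: MTT (0.5 mg/ml final, 4 h) after solubilization in 50% DMF/20% SDS, pH 4.7, with OD translated into cell number via the line's growth curve. Compound treatment lasted 72 h at 37 °C in 5% CO2, starting a day after plating.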
(Tetrazolium assays rely on reduction of a dye to a coloured formazan, in cell work by metabolically active cells.)

The target in assay [2] is T1, cloned recombinant human HDAC-1 (Homo sapiens, UniProt Q13547).
T1 construct: made in house; host or cells: Baculovirus insect cell expression system
Put plainly: Human HDAC-1 enzyme inhibition, Assay 1 ([3H]-acetylated histone substrate, scintillation counting). It is filed as biochemical. The settings on record: Table 5F; read-out: Human HDAC-1 IC50. In short, it runs like this:
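Activity read as [3H]-acetic acid liberated from labeled substrate, ethyl acetate-extracted and scintillation-counted. Compounds preincubated 30 min at 4° C. with baculovirus-expressed, purified human HDAC-1. Dose-response curves give IC50 as concentration producing fifty percent of maximal inhibition.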

The values that follow come from US7868204B2, “Inhibitors of histone deacetylase” (MethylGene Inc., priority 2001, dated 2011).

What is called EC50 is the concentration giving half of the maximal effect. A word on the IC50: it is the concentration that gives 50% inhibition.

T1 sequence (Q13547 whole entry): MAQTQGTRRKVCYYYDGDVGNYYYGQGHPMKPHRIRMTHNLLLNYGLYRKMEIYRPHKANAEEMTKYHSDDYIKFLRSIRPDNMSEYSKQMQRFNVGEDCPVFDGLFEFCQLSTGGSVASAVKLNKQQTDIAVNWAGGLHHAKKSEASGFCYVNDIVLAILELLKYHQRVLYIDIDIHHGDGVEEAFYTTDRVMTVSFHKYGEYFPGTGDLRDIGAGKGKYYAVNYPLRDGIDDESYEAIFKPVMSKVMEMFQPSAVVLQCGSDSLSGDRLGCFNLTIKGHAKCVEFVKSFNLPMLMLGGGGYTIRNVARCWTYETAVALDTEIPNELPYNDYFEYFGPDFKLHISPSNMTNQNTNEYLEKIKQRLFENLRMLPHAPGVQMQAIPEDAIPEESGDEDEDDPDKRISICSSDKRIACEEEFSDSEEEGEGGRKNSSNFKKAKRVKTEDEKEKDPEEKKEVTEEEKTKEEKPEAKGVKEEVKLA

Consider `Nc1ccccc1NC(=O)c1ccc(CSc2cccc3cccnc23)cc1` [Cpd 391, N-(2-Amino-phenyl)-4-(quinolin-8-ylsulfanylmethyl)-benzamide], for which, in assay [1], the EC50 was found to be 3 µM. In addition, the IC50 was determined as 0.9 µM with HCT116 cells and 1 µM in assay [2].
Regarding `COc1cc(NCc2ccc(C(=O)Nc3ccccc3N)cc2)nc(OC)n1` [Cpd 392, N-(2-Amino-phenyl)-4-[(2,6-dimethoxy-pyrimidin-4-ylamino)-methyl]-benzamide], the concentration giving a half-maximal response (EC50) in assay [1] turned out to be 1 µM. Also, the IC50 in the assay with HCT116 cells worked out at 1 µM; in assay [2], 4 µM.
In the case of `COc1cc(CNc2ccc(C(=O)Nc3ccccc3N)cc2)cc(OC)c1` [Cpd 393, N-(2-Amino-phenyl)-4-(3,5-dimethoxy-benzylamino)-benzamide], the 50% effective concentration (EC50) in assay [1] amounted to 1 µM. The results for the half-inhibitory concentration (IC50) (with HCT116 cells; in assay [2]) were 0.6 µM and 4 µM, respectively.
The matching figures for `COc1cccc(SCc2ccc(C(=O)Nc3ccccc3N)cc2)c1` [Cpd 394]: 25 µM, 2 µM and 4 µM.
The matching figures for `COc1cc(OC)cc(OCc2ccc(C(=O)Nc3ccccc3N)cc2)c1` [Cpd 395, N-(2-Amino-phenyl)-4-(3,5-dimethoxy-phenoxymethyl)-benzamide]: 5 µM, 1 µM and 2 µM.
With `Nc1ccccc1NC(=O)c1ccc(COc2ccc3ccccc3n2)cc1` [Cpd 396, N-(2-Amino-phenyl)-4-(quinolin-2-yloxymethyl)-benzamide], in assay [1], the EC50 was found to be 5 µM. The IC50 stood at 0.7 µM in the assay on HCT116 cells and 2 µM in assay [2].
In the case of `COc1cc(NCc2ccc(C(=O)Nc3ccccc3N)cc2)cc(OC)c1` [Cpd 397, N-(2-Amino-phenyl)-4-[(3,5-dimethoxy-phenylamino)-methyl]-benzamide], the concentration giving a half-maximal response (EC50) in assay [1] stood at 4 µM. Besides, the figures for the IC50 (with HCT116 cells; in assay [2]) were 0.6 µM and 1 µM, respectively.
The matching figures for `Nc1ccccc1NC(=O)c1ccc(CNc2ccc3c(c2)OCCO3)cc1` [Cpd 400, N-(2-Amino-phenyl)-4-[(2,3-dihydro-benzo[1,4]dioxin-6-ylamino)-methyl]-benzamide]: 2 µM, 0.3 µM and 8 µM.
`CC(=O)Nc1ccc(NCc2ccc(C(=O)Nc3ccccc3N)cc2)cc1` [Cpd 401, 4-[(4-Acetylamino-phenylamino)methyl]-N-(2-amino-phenyl)-benzamide]: the EC50 in assay [1] was determined as 2 µM. For the same compound, the IC50 in the assay with HCT116 cells is 0.3 µM; in assay [2] it was 6 µM.
`Nc1ccccc1NC(=O)c1ccc(CNc2ccc(N3CCOCC3)cc2)cc1` [Cpd 402, N-(2-Amino-phenyl)-4-[(4-morpholin-4-yl-phenylamino)-methyl]-benzamide]: the EC50 in assay [1] is 1 µM. Moreover, the IC50 is 0.4 µM in the assay on HCT116 cells and 14 µM in assay [2].
The matching figures for `COc1ccc(NCc2ccc(C(=O)Nc3ccccc3N)cc2)c(C)c1` [Cpd 403, N-(2-Amino-phenyl)-4-[(4-methoxy-2-methyl-phenylamino)-methyl]-benzamide]: 1 µM, 0.2 µM and 1 µM.
As for `COc1cc(C#N)c(NCc2ccc(C(=O)Nc3ccccc3N)cc2)cc1OC` [Cpd 404], the concentration giving a half-maximal response (EC50) in assay [1] stood at 5 µM. In addition, the IC50 came out at 0.6 µM with HCT116 cells and 3 µM in assay [2].
The matching figures for `COc1ccc(NCc2ccc(C(=O)Nc3ccccc3N)cc2)cc1OCc1cccnc1` [Cpd 405]: 5 µM, 1 µM and 5 µM.
On to `Cc1cc(C)c(NCc2ccc(C(=O)Nc3ccccc3N)cc2)c(C)c1` [Cpd 410, N-(2-Amino-phenyl)-4-[(2,4,6-trimethyl-phenylamino)-methyl]-benzamide], for which the EC50 in assay [1] is greater than 5 µM. For the same compound, the IC50 was determined as 0.1 µM with HCT116 cells and 0.9 µM in assay [2].
The matching figures for `Nc1ccccc1NC(=O)c1ccc(NCc2ccc(F)cc2)cc1` [Cpd 413, N-(2-Amino-phenyl)-4-(4-fluoro-benzylamino)-benzamide]: 3 µM, 2 µM and 2 µM.
The like results for `COc1ccc(CNc2ccc(C(=O)Nc3ccccc3N)cc2)cc1` [Cpd 414, N-(2-Amino-phenyl)-4-(4-methoxy-benzylamino)-benzamide] were, in that order, 1 µM, 1 µM and 3 µM.
The like results for `Nc1ccccc1NC(=O)c1ccc(CNc2ccc(F)cc2)cc1` [Cpd 415, N-(2-Amino-phenyl)-4-[(4-fluoro-phenylamino)-methyl]-benzamide] were, in that order, 3 µM, 1 µM and 3 µM.
In the case of `Nc1ccccc1NC(=O)c1ccc(NCc2cccc(F)c2)cc1` [Cpd 416, N-(2-Amino-phenyl)-4-(3-fluoro-benzylamino)-benzamide], the EC50 in assay [1] is 1 µM. The IC50 in the assay on HCT116 cells turned out to be 0.6 µM; in assay [2] it was 3 µM.
The matching figures for `Nc1ccccc1NC(=O)c1ccc(CNc2cccc(F)c2)cc1` [Cpd 417, N-(2-Amino-phenyl)-4-[(3-fluoro-phenylamino)-methyl]-benzamide]: 1 µM, 1 µM and 3 µM.
With `Cc1cc(Cl)nc(NCc2ccc(C(=O)Nc3ccccc3N)cc2)n1` [Cpd 418, N-(2-Amino-phenyl)-4-[(4-chloro-6-methyl-pyrimidin-2-ylamino)-methyl]-benzamide], in assay [1], the EC50 came to 2 µM. For the same compound, the half-inhibitory concentration (IC50) in the assay on HCT116 cells stood at 0.9 µM; in assay [2], 3 µM.
Consider `Nc1ccccc1NC(=O)c1ccc(CNc2nc(Cl)cc(Cl)n2)cc1` [Cpd 419, N-(2-Amino-phenyl)-4-[(4,6-dichloro-pyrimidin-2-ylamino)-methyl]-benzamide], for which the EC50 in assay [1] is 5 µM. Further, the results for the IC50 (in the assay with HCT116 cells; in assay [2]) were 1 µM and 2 µM, respectively.
As for `Nc1ccccc1NC(=O)c1ccc(CNc2nc(Cl)cc(NCc3cccnc3)n2)cc1` [Cpd 420, N-(2-Amino-phenyl)-4-({4-chloro-6-[(pyridin-3-ylmethyl)-amino]-pyrimidin-2-ylamino]-methyl)-benzamide], the EC50 in assay [1] stood at 1 µM. The half-maximal inhibitory concentration (IC50) with HCT116 cells came to 0.7 µM; in assay [2], 3 µM.
The like results for `COc1ccc(NCc2ccc(C(=O)Nc3ccccc3N)cc2)cn1` [Cpd 421] were, in that order, 1 µM, 0.6 µM and 4 µM.
The matching figures for `Nc1ccccc1NC(=O)c1ccc(CNc2ccc(OC(F)(F)F)cc2)cc1` [Cpd 422, N-(2-Amino-phenyl)-4-[(4-trifluoromethoxy-phenylamino)-methyl]-benzamide]: 5 µM, 0.9 µM and less than 0.05 µM.
On to `Nc1ccccc1NC(=O)c1ccc(CNc2cccc(OC(F)(F)F)c2)cc1` [Cpd 423, N-(2-Amino-phenyl)-4-[(3-trifluoromethoxy-phenylamino)-methyl]-benzamide], for which the EC50 in assay [1] was 3 µM. The half-maximal inhibitory concentration (IC50) in the assay with HCT116 cells was 1 µM; in assay [2], 0.5 µM.
As for `Nc1ccccc1NC(=O)c1ccc(NCc2cccc(OC(F)(F)F)c2)cc1` [Cpd 425, N-(2-Amino-phenyl)-4-(3-trifluoromethoxy-benzylamino)-benzamide], the EC50 in assay [1] is 5 µM. The IC50 was 0.6 µM in the assay on HCT116 cells and 2 µM in assay [2].
The matching figures for `Nc1ccccc1NC(=O)c1ccc(NCc2ccc(OC(F)(F)F)cc2)cc1` [Cpd 426, N-(2-Amino-phenyl)-4-(4-trifluoromethoxy-benzylamino)-benzamide]: 10 µM, 1 µM and 2 µM.
The like results for `Nc1ccccc1NC(=O)c1ccc(CNc2ccc3c(c2)OCO3)cc1` [Cpd 428, N-(2-Amino-phenyl)-4-(benzo[1,3]dioxol-5-ylaminomethyl)-benzamide] were, in that order, 1 µM, 0.7 µM and 0.7 µM.
For `COc1ccccc1NCc1ccc(C(=O)Nc2ccccc2N)cc1` [Cpd 429, N-(2-Amino-phenyl)-4-[(2-methoxy-phenylamino)-methyl]-benzamide], in assay [1], the EC50 is 1 µM. Also, the concentration for half-maximal inhibition (IC50) was determined as 0.9 µM in the assay on HCT116 cells and 4 µM in assay [2].
In the case of `COc1cccc(NCc2ccc(C(=O)Nc3ccccc3N)cc2)c1` [Cpd 430, N-(2-Amino-phenyl)-4-[(3-methoxy-phenylamino)-methyl]-benzamide], in assay [1], the EC50 was 1 µM. Besides, the IC50 was 0.7 µM in the assay on HCT116 cells and 5 µM in assay [2].
The like results for `Nc1ccccc1NC(=O)c1ccc(CNc2nccc(N3CCOCC3)n2)cc1` [Cpd 435, N-(2-Amino-phenyl)-4-[(4-morpholin-4-yl-pyrimidin-2-ylamino)-methyl]-benzamide] were, in that order, 1 µM, 0.6 µM and 3 µM.
The matching figures for `Nc1ccccc1NC(=O)c1ccc(CNCCc2c[nH]c3ccccc23)cc1` [Cpd 436]: 5 µM, 0.8 µM and 5 µM.
Take `CSc1ccc(NCc2ccc(C(=O)Nc3ccccc3N)cc2)cc1` [Cpd 437]: the concentration for a half-maximal effect (EC50) in assay [1] amounted to 1 µM. The concentration for half-maximal inhibition (IC50) in the assay on HCT116 cells was found to be 0.4 µM; in assay [2], 3 µM.
The like results for `CSc1cccc(NCc2ccc(C(=O)Nc3ccccc3N)cc2)c1` [Cpd 438, N-(2-Amino-phenyl)-4-[(3-methylsulfanyl-phenylamino)-methyl]-benzamide] were, in that order, 1 µM, 0.6 µM and 5 µM.
